Values of other authors in US20140030308A1, “IMPLANTS AND PROCEDURES FOR PROMOTING AUTOLOGOUS STEM CELL GROWTH” (priority 2012, published 2014).

Conditions: general statement used to time administration before stent placement

## c1cc(CN2CCCNCCNCCCNCC2)ccc1CN1CCCNCCNCCCNCC1 [Prelixafor, 1,1′-[1,4-phenylenebis(methylene)]bis-1,4,8,11-tetraazacyclotetradecane]
  half-life: about 8 hours
